Data: PubChem BioAssay (NCI)
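Assay format: 96-well plates, 48-hour exposure. GI50: concentration for 50% inhibition of growth. TGI: total growth inhibition.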

Legend:
Assay in all cases: NCI tumour cell line growth inhibition, 48 h
SW-620 colon = test system: SW-620 colon
SK-OV-3 ovarian = test system: SK-OV-3 ovarian
EKVX NSCLC = test system: EKVX NSCLC
SNB-75 CNS = test system: SNB-75 CNS
HOP-92 NSCLC = test system: HOP-92 NSCLC
MOLT-4 leukemia = test system: MOLT-4 leukemia
MCF7 breast = test system: MCF7 breast
HT29 colon = test system: HT29 colon
CCRF-CEM leukemia = test system: CCRF-CEM leukemia
HOP-62 NSCLC = test system: HOP-62 NSCLC
T-47D breast = test system: T-47D breast
LOX IMVI melanoma = test system: LOX IMVI melanoma
MALME-3M melanoma = test system: MALME-3M melanoma
786-0 renal = test system: 786-0 renal
NCI-H522 lung = test system: NCI-H522 lung
MDA-MB-231 breast = test system: MDA-MB-231 breast
SK-MEL-2 melanoma = test system: SK-MEL-2 melanoma
DU-145 prostate = test system: DU-145 prostate
SF-539 CNS = test system: SF-539 CNS
SR leukemia = test system: SR leukemia
U251 CNS = test system: U251 CNS
MDA-MB-435 = test system: MDA-MB-435
KM12 colon = test system: KM12 colon
OVCAR-5 ovarian = test system: OVCAR-5 ovarian
NCI/ADR-RES ovarian = test system: NCI/ADR-RES ovarian
OVCAR-3 ovarian = test system: OVCAR-3 ovarian
NCI-H23 lung = test system: NCI-H23 lung
UACC-62 melanoma = test system: UACC-62 melanoma
A549 NSCLC = test system: A549 NSCLC
OVCAR-4 ovarian = test system: OVCAR-4 ovarian
HS 578T breast = test system: HS 578T breast
UO-31 renal = test system: UO-31 renal
PC-3 prostate = test system: PC-3 prostate
ACHN renal = test system: ACHN renal
RPMI-8226 leukemia = test system: RPMI-8226 leukemia
SK-MEL-5 melanoma = test system: SK-MEL-5 melanoma
SK-MEL-28 melanoma = test system: SK-MEL-28 melanoma
M14 melanoma = test system: M14 melanoma
HCT-116 colon = test system: HCT-116 colon
NCI-H226 lung = test system: NCI-H226 lung
HCT-15 colon = test system: HCT-15 colon
NCI-H460 lung = test system: NCI-H460 lung
CAKI-1 renal = test system: CAKI-1 renal
HL-60(TB) leukemia = test system: HL-60(TB) leukemia
K-562 leukemia = test system: K-562 leukemia
TK-10 renal = test system: TK-10 renal
SN12C renal = test system: SN12C renal
COLO 205 colon = test system: COLO 205 colon
UACC-257 melanoma = test system: UACC-257 melanoma
IGROV1 ovarian = test system: IGROV1 ovarian
SF-268 CNS = test system: SF-268 CNS
OVCAR-8 ovarian = test system: OVCAR-8 ovarian
BT-549 breast = test system: BT-549 breast
HCC-2998 colon = test system: HCC-2998 colon
A498 renal = test system: A498 renal
SNB-19 CNS = test system: SNB-19 CNS
SF-295 CNS = test system: SF-295 CNS

How did the GI50 (SW-620 colon) turn out when `C[C@H](Nc1ncnc2ccc(-c3cnc(Cl)c(NS(C)(=O)=O)c3)cc12)c1ccccc1` was run?
The GI50 was 2 µM.

And the TGI (SW-620 colon)?
Its TGI is 11.3 µM.

What about the GI50 (SK-OV-3 ovarian) of the same compound?
Its GI50 is 1.61 µM.

What about the TGI (SK-OV-3 ovarian) of the same compound?
The TGI was 7.72 µM.

And the GI50 (EKVX NSCLC)?
Its GI50 is 1.2 µM.

What about the TGI (EKVX NSCLC) of the same compound?
The TGI was 4.36 µM.

What about the GI50 (SNB-75 CNS) of the same compound?
The GI50 was 0.257 µM.

What about the TGI (SNB-75 CNS) of the same compound?
Its TGI is 4.83 µM.

And the GI50 (HOP-92 NSCLC)?
Its GI50 is 0.28 µM.

What about the TGI (HOP-92 NSCLC) of the same compound?
The TGI was 4.84 µM.

And the GI50 (MOLT-4 leukemia)?
The GI50 was 4.33 µM.

What about the TGI (MOLT-4 leukemia) of the same compound?
The TGI was greater than 100 µM.

What about the GI50 (MCF7 breast) of the same compound?
The GI50 was 0.277 µM.

What about the TGI (MCF7 breast) of the same compound?
Its TGI is 10.6 µM.

And the GI50 (HT29 colon)?
Its GI50 is 2.36 µM.

What about the TGI (HT29 colon) of the same compound?
The TGI was 19.7 µM.

And the GI50 (CCRF-CEM leukemia)?
The GI50 was 5.46 µM.

And the TGI (CCRF-CEM leukemia)?
Its TGI is greater than 100 µM.

What about the GI50 (HOP-62 NSCLC) of the same compound?
The GI50 was 1.3 µM.

And the TGI (HOP-62 NSCLC)?
Its TGI is 21 µM.

What about the GI50 (T-47D breast) of the same compound?
The GI50 was 0.175 µM.

What about the TGI (T-47D breast) of the same compound?
Its TGI is 2.41 µM.

What about the GI50 (LOX IMVI melanoma) of the same compound?
Its GI50 is 0.344 µM.

What about the TGI (LOX IMVI melanoma) of the same compound?
The TGI was 1.89 µM.

And the GI50 (MALME-3M melanoma)?
Its GI50 is 0.242 µM.

And the TGI (MALME-3M melanoma)?
The TGI was 1.88 µM.

And the GI50 (786-0 renal)?
Its GI50 is 1.14 µM.

What about the TGI (786-0 renal) of the same compound?
Its TGI is 7.48 µM.

What about the GI50 (NCI-H522 lung) of the same compound?
The GI50 was 2.9 µM.

What about the TGI (NCI-H522 lung) of the same compound?
The TGI was 19.4 µM.

What about the GI50 (MDA-MB-231 breast) of the same compound?
Its GI50 is 1.03 µM.

And the TGI (MDA-MB-231 breast)?
Its TGI is 2.7 µM.

What about the GI50 (SK-MEL-2 melanoma) of the same compound?
The GI50 was 1.52 µM.

What about the TGI (SK-MEL-2 melanoma) of the same compound?
Its TGI is 3.5 µM.

And the GI50 (DU-145 prostate)?
Its GI50 is 2.73 µM.

And the TGI (DU-145 prostate)?
Its TGI is 28.4 µM.

And the GI50 (SF-539 CNS)?
The GI50 was 1.13 µM.

What about the TGI (SF-539 CNS) of the same compound?
Its TGI is 3.87 µM.

And the GI50 (SR leukemia)?
The GI50 was 2.1 µM.

And the TGI (SR leukemia)?
The TGI was greater than 100 µM.

What about the GI50 (U251 CNS) of the same compound?
The GI50 was 1.05 µM.

What about the TGI (U251 CNS) of the same compound?
The TGI was 30.7 µM.

And the GI50 (MDA-MB-435)?
The GI50 was 1.27 µM.

What about the TGI (MDA-MB-435) of the same compound?
Its TGI is 10.7 µM.

And the GI50 (KM12 colon)?
Its GI50 is 2.3 µM.

What about the TGI (KM12 colon) of the same compound?
The TGI was 11.8 µM.

What about the GI50 (OVCAR-5 ovarian) of the same compound?
Its GI50 is 1.37 µM.

And the TGI (OVCAR-5 ovarian)?
Its TGI is 11.4 µM.

And the GI50 (NCI/ADR-RES ovarian)?
The GI50 was 4.76 µM.

What about the TGI (NCI/ADR-RES ovarian) of the same compound?
Its TGI is 19.7 µM.

And the GI50 (OVCAR-3 ovarian)?
The GI50 was 0.627 µM.

What about the TGI (OVCAR-3 ovarian) of the same compound?
Its TGI is 2.94 µM.

And the GI50 (NCI-H23 lung)?
The GI50 was 1.07 µM.

What about the TGI (NCI-H23 lung) of the same compound?
Its TGI is 5.18 µM.

And the GI50 (UACC-62 melanoma)?
Its GI50 is 0.379 µM.

What about the TGI (UACC-62 melanoma) of the same compound?
The TGI was 2.16 µM.

What about the GI50 (A549 NSCLC) of the same compound?
Its GI50 is 3.17 µM.

And the TGI (A549 NSCLC)?
Its TGI is 15.7 µM.

What about the GI50 (OVCAR-4 ovarian) of the same compound?
The GI50 was 1.58 µM.

What about the TGI (OVCAR-4 ovarian) of the same compound?
Its TGI is 11.7 µM.

What about the GI50 (HS 578T breast) of the same compound?
The GI50 was 0.199 µM.

And the TGI (HS 578T breast)?
Its TGI is 0.862 µM.

And the GI50 (UO-31 renal)?
The GI50 was 0.284 µM.

And the TGI (UO-31 renal)?
The TGI was 4.85 µM.

And the GI50 (PC-3 prostate)?
The GI50 was 0.806 µM.

And the TGI (PC-3 prostate)?
Its TGI is 37.1 µM.

What about the GI50 (ACHN renal) of the same compound?
The GI50 was 2.18 µM.

And the TGI (ACHN renal)?
Its TGI is greater than 100 µM.

And the GI50 (RPMI-8226 leukemia)?
Its GI50 is 4.29 µM.

And the TGI (RPMI-8226 leukemia)?
The TGI was greater than 100 µM.

And the GI50 (SK-MEL-5 melanoma)?
Its GI50 is 1.04 µM.

What about the TGI (SK-MEL-5 melanoma) of the same compound?
Its TGI is 2.21 µM.

What about the GI50 (SK-MEL-28 melanoma) of the same compound?
Its GI50 is 0.491 µM.

What about the TGI (SK-MEL-28 melanoma) of the same compound?
The TGI was 6.77 µM.

And the GI50 (M14 melanoma)?
The GI50 was 1.57 µM.

And the TGI (M14 melanoma)?
The TGI was 12.6 µM.

What about the GI50 (HCT-116 colon) of the same compound?
Its GI50 is 1.68 µM.

And the TGI (HCT-116 colon)?
The TGI was 6.12 µM.

And the GI50 (NCI-H226 lung)?
Its GI50 is 0.943 µM.

What about the TGI (NCI-H226 lung) of the same compound?
Its TGI is 8.41 µM.

And the GI50 (HCT-15 colon)?
The GI50 was 0.766 µM.

What about the TGI (HCT-15 colon) of the same compound?
Its TGI is 11.2 µM.

And the GI50 (NCI-H460 lung)?
Its GI50 is 1.39 µM.

What about the TGI (NCI-H460 lung) of the same compound?
The TGI was 13.5 µM.

And the GI50 (CAKI-1 renal)?
The GI50 was 1.11 µM.

What about the TGI (CAKI-1 renal) of the same compound?
Its TGI is 8.21 µM.

And the GI50 (HL-60(TB) leukemia)?
Its GI50 is 9.47 µM.

What about the TGI (HL-60(TB) leukemia) of the same compound?
The TGI was greater than 100 µM.

And the GI50 (K-562 leukemia)?
The GI50 was 7.97 µM.

And the TGI (K-562 leukemia)?
The TGI was greater than 100 µM.

What about the GI50 (TK-10 renal) of the same compound?
Its GI50 is 1.91 µM.

And the TGI (TK-10 renal)?
Its TGI is 21.5 µM.

And the GI50 (SN12C renal)?
Its GI50 is 0.773 µM.

What about the TGI (SN12C renal) of the same compound?
The TGI was 27.8 µM.

What about the GI50 (COLO 205 colon) of the same compound?
The GI50 was 2.29 µM.

And the TGI (COLO 205 colon)?
The TGI was 7.61 µM.

And the GI50 (UACC-257 melanoma)?
Its GI50 is 1.97 µM.

What about the TGI (UACC-257 melanoma) of the same compound?
Its TGI is 13.4 µM.

And the GI50 (IGROV1 ovarian)?
Its GI50 is 0.278 µM.

And the TGI (IGROV1 ovarian)?
Its TGI is 1.5 µM.

And the GI50 (SF-268 CNS)?
The GI50 was 1.11 µM.

What about the TGI (SF-268 CNS) of the same compound?
Its TGI is 10.4 µM.

And the GI50 (OVCAR-8 ovarian)?
The GI50 was 2.27 µM.

And the TGI (OVCAR-8 ovarian)?
The TGI was 16 µM.

What about the GI50 (BT-549 breast) of the same compound?
The GI50 was 0.272 µM.

And the TGI (BT-549 breast)?
The TGI was 2.05 µM.

And the GI50 (HCC-2998 colon)?
Its GI50 is 0.924 µM.

And the TGI (HCC-2998 colon)?
Its TGI is 6.86 µM.

And the GI50 (A498 renal)?
Its GI50 is 0.269 µM.

What about the TGI (A498 renal) of the same compound?
Its TGI is 2.3 µM.

What about the GI50 (SNB-19 CNS) of the same compound?
Its GI50 is 1.18 µM.

And the TGI (SNB-19 CNS)?
Its TGI is 9.94 µM.

What about the GI50 (SF-295 CNS) of the same compound?
The GI50 was 0.971 µM.

And the TGI (SF-295 CNS)?
The TGI was 4.14 µM.
